Experiments:
Assay in all cases: in vitro NanoGlo kinase activity assay, n=[…]
Format in all cases: biochemical
[1] = biological target: CLK2 (Homo sapiens, UniProt P49760)
[2] = biological target: CLK3 (Homo sapiens, UniProt P49761)
[3] = biological target: CLK1 (Homo sapiens, UniProt P49759)
CLK1, sequence (P49759 whole entry): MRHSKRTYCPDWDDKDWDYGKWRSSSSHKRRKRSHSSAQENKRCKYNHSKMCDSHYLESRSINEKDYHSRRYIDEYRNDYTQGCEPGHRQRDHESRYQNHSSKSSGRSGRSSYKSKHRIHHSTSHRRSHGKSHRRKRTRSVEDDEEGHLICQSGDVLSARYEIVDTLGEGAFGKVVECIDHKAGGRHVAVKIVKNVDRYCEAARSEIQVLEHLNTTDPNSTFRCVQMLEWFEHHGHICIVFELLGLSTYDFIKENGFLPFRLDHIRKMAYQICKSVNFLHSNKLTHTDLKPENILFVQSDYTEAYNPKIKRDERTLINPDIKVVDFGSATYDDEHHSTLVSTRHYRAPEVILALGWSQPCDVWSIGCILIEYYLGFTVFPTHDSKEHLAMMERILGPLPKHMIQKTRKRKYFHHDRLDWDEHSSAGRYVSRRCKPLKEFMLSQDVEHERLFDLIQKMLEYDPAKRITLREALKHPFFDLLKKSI

CLK2, sequence (P49760 whole entry): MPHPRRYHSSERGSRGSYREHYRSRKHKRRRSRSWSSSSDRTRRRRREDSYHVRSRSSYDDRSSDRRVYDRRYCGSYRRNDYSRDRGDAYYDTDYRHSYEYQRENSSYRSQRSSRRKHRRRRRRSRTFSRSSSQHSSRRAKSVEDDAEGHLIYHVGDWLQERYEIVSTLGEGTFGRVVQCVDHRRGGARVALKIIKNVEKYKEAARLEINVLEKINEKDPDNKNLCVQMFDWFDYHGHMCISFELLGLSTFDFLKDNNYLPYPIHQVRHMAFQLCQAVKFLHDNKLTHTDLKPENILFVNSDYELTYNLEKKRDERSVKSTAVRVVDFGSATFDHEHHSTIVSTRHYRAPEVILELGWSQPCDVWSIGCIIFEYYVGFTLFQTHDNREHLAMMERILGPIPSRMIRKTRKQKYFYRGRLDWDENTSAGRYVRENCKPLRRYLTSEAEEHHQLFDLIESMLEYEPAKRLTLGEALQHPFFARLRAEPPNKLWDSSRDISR
CLK3, sequence (P49761 whole entry): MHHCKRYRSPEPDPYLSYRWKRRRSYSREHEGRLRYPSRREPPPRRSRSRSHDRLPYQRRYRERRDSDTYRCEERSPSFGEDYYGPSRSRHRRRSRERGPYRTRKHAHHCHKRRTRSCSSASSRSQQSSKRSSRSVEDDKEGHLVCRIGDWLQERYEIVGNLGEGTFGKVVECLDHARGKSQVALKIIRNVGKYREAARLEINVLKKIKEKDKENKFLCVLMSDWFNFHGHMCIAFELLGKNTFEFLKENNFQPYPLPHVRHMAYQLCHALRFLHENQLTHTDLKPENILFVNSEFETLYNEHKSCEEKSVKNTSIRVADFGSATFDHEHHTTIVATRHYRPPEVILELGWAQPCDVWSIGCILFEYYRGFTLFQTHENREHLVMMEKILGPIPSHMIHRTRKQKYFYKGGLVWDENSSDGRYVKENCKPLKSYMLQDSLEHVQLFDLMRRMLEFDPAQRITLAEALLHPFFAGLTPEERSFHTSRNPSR

IC50 [1]: 605 nM
IC50 [2]: 6800 nM
IC50 [3]: 446 nM
Compound: O=C(Nc1cc(C2CCCC2)n[nH]1)c1ccc2c(c1)[nH]c(=O)n2C1CCCC1 [SR-1815]

Reference: paper PMC11952508 (bioRxiv, 2025)
